The text below walks through data of patent US20160184459A1, “CANCER CELL SPECIFIC IMAGING PROBES AND METHODS OF USE” (THE RESEARCH FOUNDATION FOR THE STATE UNIVERSITY OF NEW YORK, priority 2013, published 2016).

Molecules are shown by their SMILES.

The subject of data set [1] is Eph4. Put plainly: Cell viability assays (MTS, PI staining), normal mammary epithelial cells. Format: cell-based, mouse. The protocol: FIG. 15. Inhibition of cell viability by BKAc-Puro. The cell lines were grown and analyzed as in FIG. 12.
(§1) FIG. 17. Selective cytotoxicity by BKAc-Puro on breast cancer cells. Normal mammary gland epithelial cells (Eph4) and breast cancer cells (MCF-7 and MDA-MB-231) were grown and analyzed as in FIG. 10. BF, bright field. PI, fluorescent PI channel. BKAc-Puro can selectively cause cell death in breast cancer cells (MCF-7 and MDA-MB-231) while leaving normal Eph4 cells unharmed.
(§2) Cell number was determined by cell counting using improved Neubauer hemacytometer. Cell viability was calculated as the number of viable cells divided by the total number of cells using Trypan Blue Stain (Invitrogen) to distinguish non-viable cells. Data were obtained from duplicated samples with quadruplicate measurements. MTS based cell viability assay was performed using CellTiter 96 Aqueous Cell Proliferation Assay (Promega) according to the manufacturer's instruction. […] After additional 2-3 h incubation, the absorbance of the formazan at 490 nm was measured by the microplate reader. […] Determination of non-viable cells using PI staining was performed by adding 1 μg/ml of PI solution (Sigma) to the cell culture, prior to the examination under fluorescence microscopy (Axiovert 3, Carl Zeiss) through a×32 objective equipped with a digital imaging processor (Infinity 3, Lumenera).

A short description of data set [2]: Toxicity / body weight change in mice. Format: in vivo, mouse. The text has this: FIG. 20. In vivo anticancer efficacy of BKAc-Puro. […] HCT116 cells were implanted subcutaneously into female nude mice. When the developed tumors reached 200 mm^3, animals were intraperitoneally injected by the indicated dose of the compound or vehicle control (DMSO). Tumor volume was estimated by the equation vol=(a×b^2)/2, where vol, a, and b represent volume, the length of the major axis, and the length of the minor axis, respectively. Arrows indicate the time points of treatment. (b) Body weight change during the treatment in a. Value is expressed in percent change compared to the day of the first treatment.
FIG. 21. HCT116 cells were implanted subcutaneously into female nude mice. When palpable tumors reached 50-150 mm^3, animals were randomized and treated by the indicated dose of the compound or vehicle control (DMSO) via intraperitoneal injection. Tumor incidence is presented as number of mice developed tumor (volume >300 mm^3) after 2 weeks of daily treatment/number of mice treated. Tumor volume was estimated by the equation vol=(a×b^2)/2, where vol, a, and b represent volume, the length of the major axis, and the length of the minor axis, respectively.
FIG. 22. Dose escalation toxicity study. Female nude mice (8-10 weeks old) were treated with the indicated dose of BKAc-Puro (7, 20, 67, 200, and 400 mg/kg; n=3 in each treatment group). Body weight change during the treatment is expressed in percent change compared to the day of the first treatment. Arrows indicate the time points of treatment. Data represent mean values±s.d. (n=3).
FIG. 29. In vivo anticancer efficacy of Boc-KAc-Puro. (a) Tumor growth in HCT116 xenograft model. Animals were treated with acidified saline control or Boc-KAc-Puro (50 or 150 mg/kg). Values are mean±s.d. (n=5 mice per group). *** P<0.001 compared to the control group. P=0.000716 (50 mg/kg), P=0.000349 (150 mg/kg) at 10 d. (b) Body weight change during the treatment in a and was monitored as a sign of general animal health. Values are mean±s.d. (c) Tumor growth in HT29 xenograft model. Animals were treated with acidified saline control or Boc-KAc-Puro (150 mg/kg). Values are mean±s.d. (n=5 mice per group). *** P<0.001 compared to the control group. P=0.000514 (150 mg/kg) at 10 d. (d) Body weight change during the treatment in c was monitored as a sign of general animal health. Values are mean±s.d. (e) Levels of Puro-incorporated proteins were monitored by immunoblotting. Animals bearing HT29 xenograft tumor were given daily intraperitoneal administration of the prodrug at 150 mg/kg/dose for 3 d, followed by preparation of tissue lysates. The lower panel (anti-α-Tubulin) served as a loading control.

In data set [3] the test system is ARH-77 cells. Put plainly: Live single cell imaging by fluorescence microscopy, cell surface Puro. It is filed as cell-based. The settings on record: 20 μg/ml, 16 hr, anti-puro antibody (12D10) Alexa 647, fluorescence microscopy. The protocol: Cell surface detection of Puro by anti-puro antibody (12D10) conjugated to Alexa 647 (EMD Millipore). ARH-77 cells were treated with Puro (0.25 μg/ml) or Boc-KAc-Puro (20 μg/ml) for 16 hr then harvested by centrifugation followed by two times wash using cold washing solution (0.1% BSA in PBS). Cells were resuspended in the same solution and incubated 30 min on ice with Alexa 647 conjugated mouse IgG2a anti-puromycin antibody (12D10). Cells were washed twice with the solution followed by fluorescence microscope analysis. The specificity of the antibody was confirmed by using isotype control antibody (mouse IgG2a conjugated with Alexa 647).

Data set [4] concerns breast cancer cells (MCF-7 and MDA-MB-231). The data set is described as follows: PI staining cytotoxicity, breast cancer cells. It is filed as cell-based. The method, then:
as §1, §2

Data set [5] deals with malignant colon cancer cells with high HDAC and CTSL activity. Put plainly: Cell counting, trypan blue exclusion and PI staining, malignant colon cancer cell lines. Conditions: 54 μM. It is filed as cell-based, human. The method, then:
FIG. 9. The colon cancer cell lines were grown for 5 d either with vehicle control DMSO (gray symbols) or 54 μM BKAc-Puro (red and blue symbols), and cell number was determined at the indicated time points.
FIG. 10. The cell lines were grown as in FIG. 8, cell viability was determined by trypan blue at the indicated time points, and is presented as the percentage of live cells treated with vehicle control (gray symbols) or BKAc-Puro (red and blue symbols).
FIG. 11. The cell lines were grown as in FIG. 8, and dead cells were determined after 80 h by PI signal under fluorescent microscope. BF, bright field. PI, fluorescent PI channel.
as §2, with “measurements.” for “measurements. MTS based cell viability assay was performed using CellTiter 96 Aqueous Cell Proliferation Assay (Promega) according to the manufacturer's instruction.”

In data set [6] the test system is prostate cancer cells (PC-3, DU-145 and LNCaP). The data set is described as follows: Cell viability assay, prostate cancer cells. The settings on record: dose-response, MTS. Format: cell-based. The method, then: FIG. 19. Selective cytotoxicity by BKAc-Puro on prostate cancer cells. Prostate cancer (PC-3, DU-145, and LNCaP), colon cancer (HCT116 as a positive control sensitive to the drug), and normal colon (CCD841-CoN as a negative control) cells were grown and analyzed as in FIG. 13. BKAc-Puro can effectively cause cell death on prostate cancer cells.
as §2

With `COc1ccc(CC(NC(=O)C(CCCCNC(C)=O)NC(=O)OC(C)(C)C)C(=O)NC2C(O)[C@H](n3cnc4c(N(C)C)ncnc43)O[C@@H]2CO)cc1` (stereo partly drawn) [BKAc-Puro, N-[3′-(α-Amino-p-methoxyhydrocinnamamido)-3′-deoxy-N,N-dimethyldenosinyl)-N-α-(t-butoxycarbonyl]-N-ε-acetyl-L-lysineamide], the Cell death result in data set [1] is “unharmed”; in data set [4], “selectively caused cell death”; in data set [6] it was “effectively caused cell death”. In addition, the “Tolerability judged by weight loss” value in data set [2] (150 mg/kg/dose daily intraperitoneal for 10 d) is on record as “well-tolerated”. In addition, the Toxicity entry in data set [2] (400 mg/kg, during and after 14 injections, HCT116 xenograft mice) is given as “No toxicity was observed”; in data set [2] (tumor incidence study groups, daily intraperitoneal treatment), “no toxicity was observed”. The “Systemic toxicity, dose escalation” value in data set [2] (up to 400 mg/kg, 5 consecutive daily injections, female nude mice) is “No severe systemic toxicity was observed”. Moreover, the “Puro presentation on cell surface proteins” value in data set [3] was “confirmed”. The “Cell death (trypan blue exclusion, morphology, PI staining)” value in data set [5] is “massive cell death”. Besides, the “Cell proliferation (cell number)” value in data set [5] (5 d) is reported as “impaired the proliferation”.
